# Assays:
# [1] = Antioxidant power on a polyvinyl chloride resin, GARDNER method, 185° C.
# [2] = Antioxidant power on a polyvinyl chloride resin, Metrastat oven, 210° C.
# Protocol: (§1) By direct comparison, on a polyvinyl chloride resin, of the antioxidant power of Compound 1 of the invention and that of an antioxidant known as one of the most valuable and frequently used in polyvinyl chloride, namely 2,6-diterbutyl-4-methyl-phenol.
# (§2) The antioxidant power of Compound 1 was compared to that of 2,6-diterbutyl-4-methyl-phenol (Compound 2) by using the following resin:
# The same trials were carried out in a Metrastat oven at 210° C.
# [3] = Antioxidant power on a polyvinyl chloride resin, GARDNER method, 185° C.; remark: listed apart in the source
# Protocol: as §1, §2
# The study was carried out according to the GARDNER method, the samples being removed from an oven at 185° C. every 10 minutes over a period of 80 minutes.
# The signs + and - have the same meanings as in the previous table and > 2 means that the coloration lies between 2 and 2+.
# [4] = Polarographic study of the oxidation potential; format: physicochemical; conditions: acetonitrile, 0.1 M lithium perchlorate, vitrous carbon electrode, calomel reference
# Excerpt: By a polarographic study of their oxidation potential, compared to well-known antioxidants such as 2,6-diterbutyl-4-methyl-phenol, 2-terbutyl-4-methoxy-phenol, 4-methoxy-phenol and hydroquinone.
# Reference electrode: Calomel electrode containing a saturated solution of anhydrous lithium perchlorate as bridge liquid.
# Working electrode: Vitrous carbon rotating electrode (2,500 r.p.m.)
# Counter-electrode: Platinum electrode
# Acetonitrile containing less than 0.1% of water and presenting no polarographic waves between -2.5 V and +2.5 V.
# Anhydrous lithium perchlorate containing less than 1% of water.
# A 0.1 M solution of lithium perchlorate in acetonitrile, treated and preserved on a 4 A molecular sieve.
# Amplitude of exploration: 0 to 2 V
# Speed of exploration: 10 mV/second
# Sensitivity: 1.25 μA to 50 μA
# Mean concentration: about 0.3×10^-3 mol/liter
# Between each measurement, the vitrous carbon electrode and the platinum electrode were carefully cleaned with Joseph paper.
smiles,measurement,setting,value
"Cc1cc(C(C)(C)C)c(O)c(C(C)(C)C)c1 [Compound Z, 2,6-diterbutyl-4-methyl-phenol, reference compound]","antioxidant power, Compound 1 vs Compound Z, in words",[1],no concentration in Compound Z gives the best results obtained with Compound 1
same,time of burning (B),[2]; 0.05 part,38 '
same,"coloration, GARDNER scale","[2]; 0.05 part, 10 to 20 min",2
same,"coloration, GARDNER scale","[2]; 0.05 part, 30 to 35 min",10
same,"coloration, GARDNER scale","[2]; 0.05 part, 35 to 40 min",> 10
same,time of burning (B),[2]; 0.1 part,39 '
same,"coloration, GARDNER scale","[2]; 0.1 part, 10 to 20 min",2
same,"coloration, GARDNER scale","[2]; 0.1 part, 30 to 35 min",11
same,"coloration, GARDNER scale","[2]; 0.1 part, 35 to 40 min",> 11
same,time of burning (B),[2]; 0.2 part,39 '
same,"coloration, GARDNER scale","[2]; 0.2 part, 10 to 20 min",2
same,"coloration, GARDNER scale","[2]; 0.2 part, 30 to 35 min",11
same,"coloration, GARDNER scale","[2]; 0.2 part, 35 to 40 min",> 11
same,time of burning (B),[2]; 0.3 part,39 '
same,"coloration, GARDNER scale","[2]; 0.3 part, 0 to 10 min",< 1
same,"coloration, GARDNER scale","[2]; 0.3 part, 25 to 30 min",3
same,"coloration, GARDNER scale","[2]; 0.3 part, 30 to 35 min",9
same,"coloration, GARDNER scale","[2]; 0.3 part, 35 to 40 min",< 10
same,time of burning (B),[2]; 0.4 part,38 '
same,"coloration, GARDNER scale","[2]; 0.4 part, 10 to 20 min",2
same,"coloration, GARDNER scale","[2]; 0.4 part, 20 to 25 min",3
same,"coloration, GARDNER scale","[2]; 0.4 part, 30 to 35 min",10
same,"coloration, GARDNER scale","[2]; 0.4 part, 35 to 40 min",> 10
same,time of burning (B),[2]; 0.5 part,38 '
same,"coloration, GARDNER scale","[2]; 0.5 part, 10 to 20 min",2
same,"coloration, GARDNER scale","[2]; 0.5 part, 20 to 25 min",3
same,time of burning (B),[2]; 1.0 part,38 '
same,"coloration, GARDNER scale","[2]; 1.0 part, 10 to 20 min",2
same,"coloration, GARDNER scale","[2]; 1.0 part, 25 to 30 min",5
same,"coloration, GARDNER scale","[2]; 1.0 part, 30 to 35 min",11
same,"coloration, GARDNER scale","[2]; 1.0 part, 35 to 40 min",> 11
same,"colour of sheets, in words",[2]; from the time zero,pink-coloured sheets
same,"coloration, GARDNER scale","[3]; 0.05 part, 0 min",> 1
same,"coloration, GARDNER scale","[3]; 0.05 part, 40 min",> 6
same,"coloration, GARDNER scale","[3]; 0.05 part, 50 min",7
same,"coloration, GARDNER scale","[3]; 0.05 part, 60 min",7
same,"coloration, GARDNER scale","[3]; 0.05 part, 70 min",8
same,"coloration, GARDNER scale","[3]; 0.05 part, 80 min",Burnt
same,"coloration, GARDNER scale","[3]; 0.1 part, 0 min",> 1
same,"coloration, GARDNER scale","[3]; 0.1 part, 30 min",> 5
same,"coloration, GARDNER scale","[3]; 0.1 part, 40 min",> 6
same,"coloration, GARDNER scale","[3]; 0.1 part, 50 min",7
same,"coloration, GARDNER scale","[3]; 0.1 part, 60 min",7
same,"coloration, GARDNER scale","[3]; 0.1 part, 70 min",8
same,"coloration, GARDNER scale","[3]; 0.2 part, 0 min",> 1
same,"coloration, GARDNER scale","[3]; 0.2 part, 40 min",> 6
same,"coloration, GARDNER scale","[3]; 0.2 part, 50 min",7
same,"coloration, GARDNER scale","[3]; 0.2 part, 60 min",7
same,"coloration, GARDNER scale","[3]; 0.2 part, 70 min",8
same,"coloration, GARDNER scale","[3]; 0.3 part, 20 min",> 2
same,"coloration, GARDNER scale","[3]; 0.3 part, 30 min",6
same,"coloration, GARDNER scale","[3]; 0.3 part, 40 min",7
same,"coloration, GARDNER scale","[3]; 0.3 part, 50 min",8
same,"coloration, GARDNER scale","[3]; 0.3 part, 60 min",8
same,"coloration, GARDNER scale","[3]; 0.4 part, 20 min",3
same,"coloration, GARDNER scale","[3]; 0.4 part, 30 min",> 6
same,"coloration, GARDNER scale","[3]; 0.4 part, 50 min",9
same,"coloration, GARDNER scale","[3]; 0.4 part, 60 min",9
same,"coloration, GARDNER scale","[3]; 0.4 part, 70 min",9
same,"coloration, GARDNER scale","[3]; 0.5 part, 20 min",3
same,"coloration, GARDNER scale","[3]; 0.5 part, 30 min",> 6
same,"coloration, GARDNER scale","[3]; 0.5 part, 40 min",> 7
same,"coloration, GARDNER scale","[3]; 0.5 part, 60 min",8
same,"coloration, GARDNER scale","[3]; 0.5 part, 70 min",8
same,"coloration, GARDNER scale","[3]; 1.0 part, 20 min",> 3
same,"coloration, GARDNER scale","[3]; 1.0 part, 30 min",8
same,"coloration, GARDNER scale","[3]; 1.0 part, 40 min",8
same,"coloration, GARDNER scale","[3]; 1.0 part, 50 min",8
same,"coloration, GARDNER scale","[3]; 1.0 part, 60 min",9
same,"coloration, GARDNER scale","[3]; 1.0 part, 70 min",9
same,Oxidation potential,[4],1.11 ± 0.02 volts
